Assay results as given in patent US8137705B2 (priority 2005, dated 2012).

Key:
Type in all cases: cell-based
E. coli O26:H11 = E. coli O26:H11 counts in water containing rumen content or feces treated with chemical combinations; conditions: 21° C.; for E. coli O26:H11 counts (log10 cfu/ml) at min: 0: 0 min; for E. coli O26:H11 counts (log10 cfu/ml) at min: 2: 2 min; for E. coli O26:H11 counts (log10 cfu/ml) at min: 5: 5 min; for E. coli O26:H11 counts (log10 cfu/ml) at min: 10: 10 min; for E. coli O26:H11 counts (log10 cfu/ml) at min: 20: 20 min; for E. coli O26:H11 counts (log10 cfu/ml) at min: 30: 30 min; for E. coli O26:H11 counts (log10 cfu/ml) at min: 60: 60 min; for E. coli O26:H11 counts (log10 cfu/ml) at min: 120: 120 min
E. coli O157:H7 = E. coli O157:H7 counts in water containing rumen content or feces treated with chemicals or chemical combinations; conditions: for E. coli O157:H7 counts (log10 cfu/ml) at min 0 / E. coli O157:H7 counts (log10 cfu/ml) at min 2 / E. coli O157:H7 counts (log10 cfu/ml) at min 5 / E. coli O157:H7 counts (log10 cfu/ml) at min 10 / E. coli O157:H7 counts (log10 cfu/ml) at min 20 / E. coli O157:H7 counts (log10 cfu/ml) at min 30 / E. coli O157:H7 counts (log10 cfu/ml) at min 60 / E. coli O157:H7 counts (log10 cfu/ml) at min 120: 21° C.; for E. coli O157:H7 counts (log10 cfu/ml) at min 0: 0 min; for E. coli O157:H7 counts (log10 cfu/ml) at min 2: 2 min; for E. coli O157:H7 counts (log10 cfu/ml) at min 5: 5 min; for E. coli O157:H7 counts (log10 cfu/ml) at min 10: 10 min; for E. coli O157:H7 counts (log10 cfu/ml) at min 20: 20 min; for E. coli O157:H7 counts (log10 cfu/ml) at min 30: 30 min; for E. coli O157:H7 counts (log10 cfu/ml) at min 60: 60 min; for E. coli O157:H7 counts (log10 cfu/ml) at min 120: 120 min
E. coli O111:NM = E. coli O111:NM counts in water containing rumen content or feces treated with chemical combinations; conditions: 21° C.; for E. coli O111:NM counts (log10 cfu/ml) at min 0: 0 min; for E. coli O111:NM counts (log10 cfu/ml) at min 2: 2 min; for E. coli O111:NM counts (log10 cfu/ml) at min 5: 5 min; for E. coli O111:NM counts (log10 cfu/ml) at min 10: 10 min; for E. coli O111:NM counts (log10 cfu/ml) at min 20: 20 min; for E. coli O111:NM counts (log10 cfu/ml) at min 30: 30 min; for E. coli O111:NM counts (log10 cfu/ml) at min 60: 60 min; for E. coli O111:NM counts (log10 cfu/ml) at min 120: 120 min
[1] = water containing feces (20:1, v/w)
[2] = water containing rumen content (10:1, v/w)

## O=C([O-])c1ccccc1.[Na+] [0.1% sodium benzoate, sodium benzoate]
E. coli O26:H11; [1]
  E. coli O26:H11 counts (log10 cfu/ml) at min: 0: 5.5 log10 cfu/ml
  E. coli O26:H11 counts (log10 cfu/ml) at min: 2: 5.4 log10 cfu/ml
  E. coli O26:H11 counts (log10 cfu/ml) at min: 5: 5.5 log10 cfu/ml
  E. coli O26:H11 counts (log10 cfu/ml) at min: 10: 5.4 log10 cfu/ml
  E. coli O26:H11 counts (log10 cfu/ml) at min: 20: 5.5 log10 cfu/ml
  E. coli O26:H11 counts (log10 cfu/ml) at min: 30: 5.4 log10 cfu/ml
  E. coli O26:H11 counts (log10 cfu/ml) at min: 60: 5.5 log10 cfu/ml
  E. coli O26:H11 counts (log10 cfu/ml) at min: 120: 5.4 log10 cfu/ml
E. coli O26:H11; [2]
  E. coli O26:H11 counts (log10 cfu/ml) at min: 0: 5.6 log10 cfu/ml
  E. coli O26:H11 counts (log10 cfu/ml) at min: 2: 5.5 log10 cfu/ml
  E. coli O26:H11 counts (log10 cfu/ml) at min: 5: 5.4 log10 cfu/ml
  E. coli O26:H11 counts (log10 cfu/ml) at min: 10: 5.5 log10 cfu/ml
  E. coli O26:H11 counts (log10 cfu/ml) at min: 20: 5.5 log10 cfu/ml
  E. coli O26:H11 counts (log10 cfu/ml) at min: 30: 5.5 log10 cfu/ml
  E. coli O26:H11 counts (log10 cfu/ml) at min: 60: 5.4 log10 cfu/ml
  E. coli O26:H11 counts (log10 cfu/ml) at min: 120: 5.5 log10 cfu/ml
E. coli O157:H7; [1]
  E. coli O157:H7 counts (log10 cfu/ml) at min 0: 5.7 log10 cfu/ml
  E. coli O157:H7 counts (log10 cfu/ml) at min 2: 5.6 log10 cfu/ml
  E. coli O157:H7 counts (log10 cfu/ml) at min 5: 5.4 log10 cfu/ml
  E. coli O157:H7 counts (log10 cfu/ml) at min 10: 5.6 log10 cfu/ml
  E. coli O157:H7 counts (log10 cfu/ml) at min 20: 5.5 log10 cfu/ml
  E. coli O157:H7 counts (log10 cfu/ml) at min 30: 5.4 log10 cfu/ml
  E. coli O157:H7 counts (log10 cfu/ml) at min 60: 5.5 log10 cfu/ml
  E. coli O157:H7 counts (log10 cfu/ml) at min 120: 5.6 log10 cfu/ml
E. coli O157:H7; [2]
  E. coli O157:H7 counts (log10 cfu/ml) at min 0: 5.9 log10 cfu/ml
  E. coli O157:H7 counts (log10 cfu/ml) at min 2: 6.0 log10 cfu/ml
  E. coli O157:H7 counts (log10 cfu/ml) at min 5: 6.0 log10 cfu/ml
  E. coli O157:H7 counts (log10 cfu/ml) at min 10: 5.9 log10 cfu/ml
  E. coli O157:H7 counts (log10 cfu/ml) at min 20: 6.0 log10 cfu/ml
  E. coli O157:H7 counts (log10 cfu/ml) at min 30: 5.9 log10 cfu/ml
  E. coli O157:H7 counts (log10 cfu/ml) at min 60: 6.0 log10 cfu/ml
  E. coli O157:H7 counts (log10 cfu/ml) at min 120: 6.1 log10 cfu/ml
E. coli O111:NM; [1]
  E. coli O111:NM counts (log10 cfu/ml) at min 0: 5.6 log10 cfu/ml
  E. coli O111:NM counts (log10 cfu/ml) at min 2: 5.6 log10 cfu/ml
  E. coli O111:NM counts (log10 cfu/ml) at min 5: 5.6 log10 cfu/ml
  E. coli O111:NM counts (log10 cfu/ml) at min 10: 5.7 log10 cfu/ml
  E. coli O111:NM counts (log10 cfu/ml) at min 20: 5.6 log10 cfu/ml
  E. coli O111:NM counts (log10 cfu/ml) at min 30: 5.5 log10 cfu/ml
  E. coli O111:NM counts (log10 cfu/ml) at min 60: 5.5 log10 cfu/ml
  E. coli O111:NM counts (log10 cfu/ml) at min 120: 5.6 log10 cfu/ml
E. coli O111:NM; [2]
  E. coli O111:NM counts (log10 cfu/ml) at min 0: 5.6 log10 cfu/ml
  E. coli O111:NM counts (log10 cfu/ml) at min 2: 5.6 log10 cfu/ml
  E. coli O111:NM counts (log10 cfu/ml) at min 5: 5.5 log10 cfu/ml
  E. coli O111:NM counts (log10 cfu/ml) at min 10: 5.6 log10 cfu/ml
  E. coli O111:NM counts (log10 cfu/ml) at min 20: 5.6 log10 cfu/ml
  E. coli O111:NM counts (log10 cfu/ml) at min 30: 5.5 log10 cfu/ml
  E. coli O111:NM counts (log10 cfu/ml) at min 60: 5.4 log10 cfu/ml
  E. coli O111:NM counts (log10 cfu/ml) at min 120: 5.5 log10 cfu/ml

## CCCC(=O)O [0.5% butyric acid, butyric acid]
E. coli O26:H11; [1]
  E. coli O26:H11 counts (log10 cfu/ml) at min: 0: 5.5 log10 cfu/ml
  E. coli O26:H11 counts (log10 cfu/ml) at min: 2: 5.4 log10 cfu/ml
  E. coli O26:H11 counts (log10 cfu/ml) at min: 5: 5.4 log10 cfu/ml
  E. coli O26:H11 counts (log10 cfu/ml) at min: 10: 5.4 log10 cfu/ml
  E. coli O26:H11 counts (log10 cfu/ml) at min: 20: 5.5 log10 cfu/ml
  E. coli O26:H11 counts (log10 cfu/ml) at min: 30: 5.2 log10 cfu/ml
  E. coli O26:H11 counts (log10 cfu/ml) at min: 60: 5.2 log10 cfu/ml
  E. coli O26:H11 counts (log10 cfu/ml) at min: 120: 5.0 log10 cfu/ml
E. coli O26:H11; [2]
  E. coli O26:H11 counts (log10 cfu/ml) at min: 0: 5.4 log10 cfu/ml
  E. coli O26:H11 counts (log10 cfu/ml) at min: 2: 5.4 log10 cfu/ml
  E. coli O26:H11 counts (log10 cfu/ml) at min: 5: 5.3 log10 cfu/ml
  E. coli O26:H11 counts (log10 cfu/ml) at min: 10: 5.4 log10 cfu/ml
  E. coli O26:H11 counts (log10 cfu/ml) at min: 20: 5.4 log10 cfu/ml
  E. coli O26:H11 counts (log10 cfu/ml) at min: 30: 5.2 log10 cfu/ml
  E. coli O26:H11 counts (log10 cfu/ml) at min: 60: 5.4 log10 cfu/ml
  E. coli O26:H11 counts (log10 cfu/ml) at min: 120: 5.1 log10 cfu/ml
E. coli O157:H7; butyric acid >2%, caprylic acid >0.1%, data not shown
  inactivation of E. coli O157:H7 within 20 minutes: substantial inactivation
E. coli O157:H7; [1]
  E. coli O157:H7 counts (log10 cfu/ml) at min 0: 6.0 log10 cfu/ml
  E. coli O157:H7 counts (log10 cfu/ml) at min 2: 6.0 log10 cfu/ml
  E. coli O157:H7 counts (log10 cfu/ml) at min 5: 6.0 log10 cfu/ml
  E. coli O157:H7 counts (log10 cfu/ml) at min 10: 6.1 log10 cfu/ml
  E. coli O157:H7 counts (log10 cfu/ml) at min 20: 6.1 log10 cfu/ml
  E. coli O157:H7 counts (log10 cfu/ml) at min 30: 6.1 log10 cfu/ml
  E. coli O157:H7 counts (log10 cfu/ml) at min 60: 6.0 log10 cfu/ml
  E. coli O157:H7 counts (log10 cfu/ml) at min 120: 6.0 log10 cfu/ml
E. coli O157:H7; [2]
  E. coli O157:H7 counts (log10 cfu/ml) at min 0: 5.9 log10 cfu/ml
  E. coli O157:H7 counts (log10 cfu/ml) at min 2: 5.9 log10 cfu/ml
  E. coli O157:H7 counts (log10 cfu/ml) at min 5: 5.9 log10 cfu/ml
  E. coli O157:H7 counts (log10 cfu/ml) at min 10: 5.8 log10 cfu/ml
  E. coli O157:H7 counts (log10 cfu/ml) at min 20: 5.7 log10 cfu/ml
  E. coli O157:H7 counts (log10 cfu/ml) at min 30: 5.8 log10 cfu/ml
  E. coli O157:H7 counts (log10 cfu/ml) at min 60: 5.6 log10 cfu/ml
  E. coli O157:H7 counts (log10 cfu/ml) at min 120: 5.7 log10 cfu/ml
E. coli O111:NM; [1]
  E. coli O111:NM counts (log10 cfu/ml) at min 0: 5.6 log10 cfu/ml
  E. coli O111:NM counts (log10 cfu/ml) at min 2: 5.6 log10 cfu/ml
  E. coli O111:NM counts (log10 cfu/ml) at min 5: 5.5 log10 cfu/ml
  E. coli O111:NM counts (log10 cfu/ml) at min 10: 5.6 log10 cfu/ml
  E. coli O111:NM counts (log10 cfu/ml) at min 20: 5.6 log10 cfu/ml
  E. coli O111:NM counts (log10 cfu/ml) at min 30: 5.6 log10 cfu/ml
  E. coli O111:NM counts (log10 cfu/ml) at min 60: 5.6 log10 cfu/ml
  E. coli O111:NM counts (log10 cfu/ml) at min 120: 5.6 log10 cfu/ml
E. coli O111:NM; [2]
  E. coli O111:NM counts (log10 cfu/ml) at min 0: 5.5 log10 cfu/ml
  E. coli O111:NM counts (log10 cfu/ml) at min 2: 5.5 log10 cfu/ml
  E. coli O111:NM counts (log10 cfu/ml) at min 5: 5.5 log10 cfu/ml
  E. coli O111:NM counts (log10 cfu/ml) at min 10: 5.6 log10 cfu/ml
  E. coli O111:NM counts (log10 cfu/ml) at min 20: 5.6 log10 cfu/ml
  E. coli O111:NM counts (log10 cfu/ml) at min 30: 5.4 log10 cfu/ml
  E. coli O111:NM counts (log10 cfu/ml) at min 60: 5.5 log10 cfu/ml
  E. coli O111:NM counts (log10 cfu/ml) at min 120: 5.6 log10 cfu/ml
